# Assay results taken from ChEMBL document CHEMBL3352031, “Discovery of diamine-linked 17-aroylamido-17-demethoxygeldanamycins as potent Hsp90 inhibitors” (Eur J Med Chem, 2014).
# The source made the active and inactive calls. The calls are words filed in the database; no cut-off is given here.
# Key:
# Mus musculus [1] = experiment: Hepatotoxicity in Kunming mouse assessed as serum alanine aminotransferase level at 10 mg/kg, iv (reference value: 60.7 +/- 6.9U/L); type: toxicity, organism-based; design: dose 10 mg/kg, route intravenous; conditions: in vivo
# Mus musculus [2] = experiment: Hepatotoxicity in Kunming mouse assessed as serum aspartate aminotransferase level at 10 mg/kg, iv (reference value: 197.2 +/- 11.2 U/L); type: toxicity, organism-based; design: dose 10 mg/kg, route intravenous; conditions: in vivo
# [3] = biological target: Heat shock protein HSP 90-alpha (Homo sapiens, UniProt P07900); experiment: Inhibition of GA-FITC binding to human recombinant Hsp90alpha incubated for 5 hrs by fluorescence polarization assay
# MDA-MB-231 [4] = experiment: cells; conditions: Homo sapiens, MDA-MB-231, 72 h
# Description: Cytotoxicity against human MDA-MB-231 cells after 72 hrs by MTT assay
# [5] = biological target: T1, Heat shock protein HSP90 (Homo sapiens) (UniProt P07900+P08238); experiment: Inhibition Hsp90 in human MDA-MB 231 cells assessed as reduction in AKT protein level at 0.5 and 5 uM incubated for 24 hrs by Western blot method; type: cell-based
# HUVEC = experiment: cells; conditions: Homo sapiens, 72 h
# Description: Cytotoxicity against HUVEC cells after 72 hrs by MTT assay
# [6] = biological target: T1, Heat shock protein HSP90 (Homo sapiens); experiment: Inhibition Hsp90 in human MDA-MB 231 cells assessed as reduction in EGFR protein level at 0.5 and 5 uM incubated for 24 hrs by Western blot method; type: cell-based
# A549 = experiment: cells; conditions: Homo sapiens, A549, 72 h
# Description: Cytotoxicity against human A549 cells after 72 hrs by MTT assay
# cells [7] = conditions: Homo sapiens, BGC-823, 72 h
# Description: Cytotoxicity against human BGC823 cells after 72 hrs by MTT assay
# [8] = biological target: T1, Heat shock protein HSP90 (Homo sapiens); experiment: Inhibition Hsp90 in human MDA-MB 231 cells assessed as reduction in CDK4 protein level at 0.5 and 5 uM incubated for 24 hrs by Western blot method; type: cell-based
# MDA-MB-231 [9] = experiment: Antitumor activity against human MDA-MB-231 cells xenografted in athymic nude mouse assessed as tumor growth inhibition at 10 mg/kg, iv dosed every 3 day for 15 consecutive days; type: functional; conditions: MDA-MB-231, 72 h, read-out: TGI
# [10] = Safety index, ratio of IC50 for 17-AAG to IC50 for test compound against HUVEC cells after 72 hrs by MTT assay; type: ADME, cell-based; conditions: human, read-out: Ratio IC50
# HeLa = experiment: cells; conditions: Homo sapiens, 72 h
# Description: Cytotoxicity against human HeLa cells after 72 hrs by MTT assay
# SW480 = experiment: cells; conditions: Homo sapiens, SW480, 72 h
# Description: Cytotoxicity against human SW480 cells after 72 hrs by MTT assay
# HepG2 = experiment: cells; conditions: Homo sapiens, HepG2, 72 h
# Description: Cytotoxicity against human HepG2 cells after 72 hrs by MTT assay
# [11] = Safety index, ratio of IC50 for GA to IC50 for test compound against HUVEC cells after 72 hrs by MTT assay; type: cell-based; conditions: human, read-out: Ratio IC50
# MDA-MB-231 [12] = experiment: Antitumor activity against human MDA-MB-231 cells xenografted in athymic nude mouse assessed as reduction in tumor weight at 10 mg/kg, iv dosed every 3 day for 15 consecutive days; type: functional
# [13] = Safety index, ratio of IC50 for 17-AAG to IC50 for test compound against human HL7702 cells after 72 hrs by MTT assay; type: cell-based, L02; conditions: read-out: Ratio IC50
# [14] = biological target: T1, Heat shock protein HSP90 (Homo sapiens); experiment: Inhibition Hsp90 in human MDA-MB 231 cells assessed as reduction in HER2 protein level at 0.5 and 5 uM incubated for 24 hrs by Western blot method; type: cell-based
# [15] = Safety index, ratio of IC50 for GA to IC50 for test compound against human HL7702 cells after 72 hrs by MTT assay; type: ADME, cell-based, L02; conditions: read-out: Ratio IC50
# cells [16] = conditions: Homo sapiens, L02, 72 h
# Description: Cytotoxicity against human HL7702 cells after 72 hrs by MTT assay
# A-431 = experiment: cells; conditions: Homo sapiens, A-431, 72 h
# Description: Cytotoxicity against human A431 cells after 72 hrs by MTT assay
smiles,measurement,setting,value
COC1=C2C[C@@H](C)C[C@H](OC)[C@H](O)[C@@H](C)/C=C(\C)[C@H](OC(N)=O)[C@@H](OC)/C=C\C=C(/C)C(=O)NC(=CC1=O)C2=O [GELDANAMYCIN],Activity,Mus musculus [1],273 U/L
same,Activity,Mus musculus [2],317.2 U/L
COc1cc(/C=C/C(=O)NCCCCNC2=C3C[C@@H](C)C[C@H](OC)[C@H](O)[C@@H](C)/C=C(\C)[C@H](OC(N)=O)[C@@H](OC)/C=C\C=C(/C)C(=O)NC(=CC2=O)C3=O)ccc1O,IC50,[3],970 nM
same,Activity,Mus musculus [1],75.3 U/L
same,IC50,MDA-MB-231 [4],550 nM
same,Activity,Mus musculus [2],224.8 U/L
COc1cc(/C=C/C(=O)NCCCCCCNC2=C3C[C@@H](C)C[C@H](OC)[C@H](O)[C@@H](C)/C=C(\C)[C@H](OC(N)=O)[C@@H](OC)/C=C\C=C(/C)C(=O)NC(=CC2=O)C3=O)cc(OC)c1OC,inhibition,[5],Active
same,IC50,HUVEC,1350 nM
same,inhibition,[6],Active
same,IC50,A549,278 nM
same,IC50,cells [7],527 nM
same,IC50,[3],290 nM
same,inhibition,[8],Active
same,inhibition in vivo at 10 mg/kg,MDA-MB-231 [9],81%
same,selectivity ratio at 72 h,[10],5
same,Activity,Mus musculus [1],40.4 U/L
same,IC50,MDA-MB-231 [4],190 nM
same,IC50,HeLa,284 nM
same,IC50,SW480,796 nM
same,IC50,HepG2,562 nM
same,selectivity ratio at 72 h,[11],68
same,T/C,MDA-MB-231 [12],21%
same,selectivity ratio at 72 h,[13],50
same,inhibition,[14],Active
same,Activity,Mus musculus [2],181 U/L
same,selectivity ratio at 72 h,[15],35
same,IC50,cells [16],4950 nM
same,IC50,A-431,773 nM
COc1ccc(/C=C/C(=O)NCCCCCCNC2=C3C[C@@H](C)C[C@H](OC)[C@H](O)[C@@H](C)/C=C(\C)[C@H](OC(N)=O)[C@@H](OC)/C=C\C=C(/C)C(=O)NC(=CC2=O)C3=O)cc1OC,IC50,[3],410 nM
same,Activity,Mus musculus [1],52.8 U/L
same,IC50,MDA-MB-231 [4],300 nM
same,Activity,Mus musculus [2],193.4 U/L
COc1cc(/C=C/C(=O)N2CCC(CNC3=C4C[C@@H](C)C[C@H](OC)[C@H](O)[C@@H](C)/C=C(\C)[C@H](OC(N)=O)[C@@H](OC)/C=C\C=C(/C)C(=O)NC(=CC3=O)C4=O)CC2)ccc1O,IC50,[3],1840 nM
same,Activity,Mus musculus [1],148.6 U/L
same,IC50,MDA-MB-231 [4],940 nM
same,Activity,Mus musculus [2],260.8 U/L
COc1cc(/C=C/C(=O)NCCCCCCNC2=C3C[C@@H](C)C[C@H](OC)[C@H](O)[C@@H](C)/C=C(\C)[C@H](OC(N)=O)[C@@H](OC)/C=C\C=C(/C)C(=O)NC(=CC2=O)C3=O)ccc1O,IC50,[3],470 nM
same,Activity,Mus musculus [1],72.7 U/L
same,IC50,MDA-MB-231 [4],270 nM
same,Activity,Mus musculus [2],199.3 U/L
C=CCNC1=C2C[C@@H](C)C[C@H](OC)[C@H](O)[C@@H](C)/C=C(\C)[C@H](OC(N)=O)[C@@H](OC)/C=C\C=C(/C)C(=O)NC(=CC1=O)C2=O [TANESPIMYCIN],IC50,HUVEC,282 nM
same,IC50,A549,81 nM
same,IC50,cells [7],847 nM
same,inhibition in vivo at 10 mg/kg,MDA-MB-231 [9],73%
same,Activity,Mus musculus [1],66.6 U/L
same,IC50,MDA-MB-231 [4],280 nM
same,IC50,HeLa,128 nM
same,IC50,SW480,572 nM
same,IC50,HepG2,91 nM
same,T/C,MDA-MB-231 [12],28%
same,Activity,Mus musculus [2],237.4 U/L
same,IC50,cells [16],99 nM
same,IC50,A-431,89 nM
CO[C@H]1/C=C\C=C(/C)C(=O)NC2=CC(=O)C(NCC3CCN(C(=O)c4cnc(C)c(C)n4)CC3)=C(C[C@@H](C)C[C@H](OC)[C@H](O)[C@@H](C)/C=C(\C)[C@@H]1OC(N)=O)C2=O,IC50,MDA-MB-231 [4],2330 nM
COc1cccc(/C=C/C(=O)NCCCCCCNC2=C3C[C@@H](C)C[C@H](OC)[C@H](O)[C@@H](C)/C=C(\C)[C@H](OC(N)=O)[C@@H](OC)/C=C\C=C(/C)C(=O)NC(=CC2=O)C3=O)c1OC,IC50,MDA-MB-231 [4],6030 nM
